Data reported in BindingDB's records for doi:10.1021/ja062999h (The Scripps Research Institute, 2006).

Tests used:
Conditions in all cases: pH 7.4; 22 °C
[1] = target: T1, Monoacylglycerol lipase ABHD6 (Mus musculus, UniProt Q8R2Y0); assay: Serine Hydrolase Activity Assay
T1 sequence (Q8R2Y0 whole entry): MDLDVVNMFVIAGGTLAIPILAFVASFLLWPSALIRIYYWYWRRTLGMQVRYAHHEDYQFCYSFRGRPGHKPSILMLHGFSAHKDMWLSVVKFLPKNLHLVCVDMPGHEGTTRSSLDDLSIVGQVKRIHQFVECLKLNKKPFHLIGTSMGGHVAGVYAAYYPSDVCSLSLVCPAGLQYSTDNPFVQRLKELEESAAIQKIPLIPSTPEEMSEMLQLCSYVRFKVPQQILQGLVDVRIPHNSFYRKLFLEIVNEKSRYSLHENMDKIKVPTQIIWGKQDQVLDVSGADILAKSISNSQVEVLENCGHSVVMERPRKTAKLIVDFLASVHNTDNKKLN
Text: (§1) Serine hydrolase targets were recombinantly expressed in COS-7 cells by transient transfection. IC50 values were obtained by competitive ABPP with FP-rhodamine.

[2] = target: T2, Neutral cholesterol ester hydrolase 1 (Mus musculus, UniProt Q8BLF1); assay: Serine Hydrolase Activity Assay
T2 sequence (Q8BLF1 whole entry): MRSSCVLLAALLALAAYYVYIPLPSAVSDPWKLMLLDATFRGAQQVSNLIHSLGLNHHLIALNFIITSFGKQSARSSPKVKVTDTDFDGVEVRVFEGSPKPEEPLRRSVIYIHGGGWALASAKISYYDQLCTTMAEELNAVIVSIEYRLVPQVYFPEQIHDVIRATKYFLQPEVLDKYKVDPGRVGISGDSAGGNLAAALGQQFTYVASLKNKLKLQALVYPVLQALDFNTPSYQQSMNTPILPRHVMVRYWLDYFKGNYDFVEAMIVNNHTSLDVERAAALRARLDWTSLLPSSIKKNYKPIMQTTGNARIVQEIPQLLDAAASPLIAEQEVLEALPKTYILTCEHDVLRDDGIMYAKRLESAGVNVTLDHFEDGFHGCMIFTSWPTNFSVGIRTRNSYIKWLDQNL
Text: as §1

Monoglyceride lipase = target: T3, Monoglyceride lipase (Mus musculus, UniProt O35678); assay: Serine Hydrolase Activity Assay
T3 sequence (O35678 whole entry): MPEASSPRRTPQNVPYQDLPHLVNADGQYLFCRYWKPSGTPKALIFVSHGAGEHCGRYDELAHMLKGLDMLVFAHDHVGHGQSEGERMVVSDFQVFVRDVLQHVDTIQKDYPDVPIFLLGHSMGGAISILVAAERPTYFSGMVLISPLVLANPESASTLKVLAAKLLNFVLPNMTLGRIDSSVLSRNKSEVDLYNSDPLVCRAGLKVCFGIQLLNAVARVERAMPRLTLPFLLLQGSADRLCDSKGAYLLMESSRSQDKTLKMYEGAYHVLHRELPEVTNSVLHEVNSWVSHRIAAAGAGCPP
Text: as §1

[3] = target: T4, Fatty-acid amide hydrolase 1 (Mus musculus, UniProt O08914); assay: FAAH Competitive ABPP Using FP-Rhodamine
T4 sequence (O08914 whole entry): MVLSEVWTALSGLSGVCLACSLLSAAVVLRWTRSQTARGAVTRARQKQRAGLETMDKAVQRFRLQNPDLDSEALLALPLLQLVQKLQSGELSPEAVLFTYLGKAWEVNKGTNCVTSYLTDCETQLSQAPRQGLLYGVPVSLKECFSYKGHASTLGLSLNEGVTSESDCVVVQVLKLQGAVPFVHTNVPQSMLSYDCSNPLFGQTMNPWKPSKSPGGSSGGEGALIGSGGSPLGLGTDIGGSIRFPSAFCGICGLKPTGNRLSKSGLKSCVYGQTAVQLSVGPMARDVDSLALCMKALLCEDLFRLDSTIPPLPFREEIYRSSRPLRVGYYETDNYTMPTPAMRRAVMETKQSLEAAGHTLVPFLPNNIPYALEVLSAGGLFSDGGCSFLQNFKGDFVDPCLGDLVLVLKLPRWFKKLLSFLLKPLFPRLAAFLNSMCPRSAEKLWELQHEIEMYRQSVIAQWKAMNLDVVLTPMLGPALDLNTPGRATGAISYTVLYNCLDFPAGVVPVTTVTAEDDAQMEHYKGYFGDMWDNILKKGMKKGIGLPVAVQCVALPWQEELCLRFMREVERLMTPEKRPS
Procedure: Mouse brain membrane proteomes were preincubated with varying concentrations of inhibitors for 10 min prior to the addition of a rhodamine-tagged fluorophosphonate (FP-rhodamine). Reactions were quenched after 10 min, subjected to SDS-PAGE, and visualized in-gel using a flatbed fluorescence scanner. Labeled proteins were quantified by measuring integrated band intensities. Dose response curves obtained from three trials at each inhibitor concentration were fit using Prism software (GraphPad) to

CN(C)C(=O)n1nnnc1Cc1ccc(-c2ccccc2)cc1 [N,N-dimethyl-5-[(4-phenylphenyl)methyl]-1H-1,2,3,4-tetrazole-1-carboxamide]
IC50 [1]: 0.09 nM | IC50 [2]: 8.2 nM | IC50 (Monoglyceride lipase): 5.3 nM | IC50 [3]: 13 nM
